Measured values: paper PMC9482650, “Quantitative fragmentomics allow affinity mapping of interactomes” (Nature Communications, 2022)
Ends that are not written are not given here. * marks the point of attachment. Biotin = O=C1N[C@H]2[C@H](CS[C@H]2CCCCC(=O)*)N1; ttds = NCCCOCCOCCOCCCNC(=O)CCC(=O)*

What was measured:
HaCat cell extract preys = assay: PBM-AP-MS, PBM peptide baits; assay type: binding, human
Procedure: (§1) HEK293T and HeLa cells were authenticated and found 100% identity to ATCC cat. CRL-3216 and ATCC cat. CCL-2, respectively. Jurkat and HaCat cell lines were not authenticated (original source: ECACC and Deutsches Krebsforschungszentrum DKFZ, respectively). HeLa cells were grown in DMEM (1 g/L glucose, Gibco) medium completed with 5% FCS and 40 μg/mL gentamicin, diluted every 3rd/4th day 1/10. HaCat cells were grown in DMEM (1 g/L glucose, Gibco) medium completed with 10% FCS and 40 μg/mL gentamicin, diluted every 3rd/4th day 1/4. Jurkat cells were grown in RPMI (Gibco) medium completed with 10% FCS and 40 μg/mL gentamicin, diluted every 3rd/4th day 1/12. All cells were kept at 37 °C and 5% CO2. For proteomics analyses cells were seeded on T-175 flasks. After they reached confluency, adherent cells were washed with PBS once and collected by scraping with ice-cold lysis buffer (Hepes-KOH pH 7.5 50 mM, NaCl 150 mM, Triton X-100 1%, complete EDTA-free protease inhibitor cocktail 1×, EDTA 2 mM, TCEP 5 mM, glycerol 10%). Jurkat cells were collected by 1000 g × centrifugation, washed once with PBS, then collected by 1000 g × 5 min centrifugation again and lysed in ice-cold lysis buffer. Lysates were sonicated 4 × 20 s with 1 s long pulses on ice, then incubated rotating at 4 °C for 30 min. Lysates were centrifuged at 12,000 rpm 4 °C for 20 min and supernatant was kept for further analysis. Concentration determination was carried out by standard Bradford method (Bio-Rad Protein Assay Dye Reagent #5000006) using BSA (MP BIomedicals #160069) as control on a Bio-Rad SmartSpec 3000 spectrophotometer instrument.
(§2) For PBM-AP-MS experiments, 30 μl streptavidin resin was mixed with biotin or peptide at 50–60 μM concentration in 6–6.5 resin volume for 60 min to achieve resin saturation. For PDZ-AP-MS experiments, 30 μl streptavidin resin was mixed with biotinylated MBP or MBP-PDZ at 40-50 μM concentration in >1000× resin volume for 60 min to achieve resin saturation. After saturation, resins were washed a single time (ten resin volume, holdup buffer), and were depleted with biotin (1 mM biotin, 5–10 resin volume, 10 min). Finally, resins were washed two times. 0.5 ml 2 mg/ml cell lysate was added to the dry resin (1 mg total input) and were incubated at 4 °C for 2 h. Then, the beads were washed three times with 10 resin volume buffer containing: 50 mM TRIS pH 8.5, 150 mM NaCl, 1% TritonX-100, 10× complete EDTA-free protease inhibitor cocktail, 2 mM EDTA, 1 mM TCEP. Then, the beads were washed two times with ten resin volume buffer containing: 50 mM TRIS pH 8.5, 150 mM NaCl, 1 mM TCEP. Finally, captured protein was eluted from the resin in two steps and the eluted fractions were pooled. For each elution the beads were incubated for 30 min with three resin volume buffer containing: 20 mM TRIS pH8.5, 100 mM NaCl, 500 μM TCEP, 8 M Urea. Between each step, the beads were separated by mild centrifugation and the supernatant was removed by gentle pipetting.
(§3) The samples were precipitated with TCA 20% overnight at 4 °C and centrifuged at 14,000 rpm for 10 min at 4 °C. The protein pellets were washed twice with 1 mL cold acetone and air dried. The protein extracts were solubilized in urea 8 M, reduced with 5 mM TCEP for 30 min, and alkylated with 10 mM iodoacetamide for 30 min in the dark. Double digestion was performed at 37 °C with 500 ng endoproteinase Lys-C for 4 h, followed by fourfold dilution and an overnight digestion with 500 ng trypsin. Peptide mixtures were then desalted on C18 spin-column and dried on Speed-Vacuum.
(§4) Samples were analyzed using an Ultimate 3000 nano-RSLC (Thermo Scientific, San Jose California) coupled in line with a LTQ-Orbitrap ELITE mass spectrometer via a nano-electrospray ionization source (Thermo Scientific, San Jose California). […]

[1] = tested on: Jurkat cell extract preys; assay: PBM-AP-MS, PBM peptide baits; assay type: binding, human
Procedure: as §1, §2, §3, §4

Substance: HPV35E6 ({Biotin-ttds}-SKPTRRETEV)
- Enrichment values compared to biotin controls (HaCat cell extract preys; prey AHNAK2, PBM peptide bait): 0.845
- Enrichment values compared to biotin controls (HaCat cell extract preys; prey AHNAK, PBM peptide bait): 0.7
- Enrichment values compared to biotin controls (HaCat cell extract preys; prey DLG1, PBM peptide bait): 5.3
- Enrichment values compared to biotin controls (HaCat cell extract preys; prey GORASP2, PBM peptide bait): 0.7
- Enrichment values compared to biotin controls (HaCat cell extract preys; prey InaDl, PBM peptide bait): 0.6
- Enrichment values compared to biotin controls (HaCat cell extract preys; prey LAP2, PBM peptide bait): 0.849
- Enrichment values compared to biotin controls (HaCat cell extract preys; prey LIN7C, PBM peptide bait): 269.9
- Enrichment values compared to biotin controls (HaCat cell extract preys; prey MAGI3, PBM peptide bait): 4.3
- Enrichment values compared to biotin controls (HaCat cell extract preys; prey MPP5, PBM peptide bait): 0.7
- Enrichment values compared to biotin controls (HaCat cell extract preys; prey MPP6, PBM peptide bait): 0.8
- Enrichment values compared to biotin controls (HaCat cell extract preys; prey MPP7, PBM peptide bait): 30.8
- Enrichment values compared to biotin controls (HaCat cell extract preys; prey NHERF2, PBM peptide bait): 0.665
- Enrichment values compared to biotin controls (HaCat cell extract preys; prey NHERF, PBM peptide bait): 0.215
- Enrichment values compared to biotin controls (HaCat cell extract preys; prey PDLIM1, PBM peptide bait): 0.569
- Enrichment values compared to biotin controls (HaCat cell extract preys; prey PDLIM2, PBM peptide bait): 1.6
- Enrichment values compared to biotin controls (HaCat cell extract preys; prey PDLIM4, PBM peptide bait): 1.0
- Enrichment values compared to biotin controls (HaCat cell extract preys; prey PDLIM5, PBM peptide bait): 1.1
- Enrichment values compared to biotin controls (HaCat cell extract preys; prey PDLIM7, PBM peptide bait): 0.422
- Enrichment values compared to biotin controls (HaCat cell extract preys; prey PTPN3, PBM peptide bait): 0.9
- Enrichment values compared to biotin controls (HaCat cell extract preys; prey SCRIB, PBM peptide bait): 3.1
- Enrichment values compared to biotin controls (HaCat cell extract preys; prey SNTB2, PBM peptide bait): 7.5
- Enrichment values compared to biotin controls (HaCat cell extract preys; prey SNX27, PBM peptide bait): 3.3
- Enrichment values compared to biotin controls (HaCat cell extract preys; prey SYNJ2BP, PBM peptide bait): 25.2
- Fold changes HaCat, SYNJ2BP (HaCat cell extract preys; prey SYNJ2BP, PBM peptide bait): 25.2
- Enrichment values compared to biotin controls (HaCat cell extract preys; prey TJP1, PBM peptide bait): 1.3
- Enrichment values compared to biotin controls (HaCat cell extract preys; prey TJP2, PBM peptide bait): 1.8
- Enrichment values compared to biotin controls (HaCat cell extract preys; prey TX1B3, PBM peptide bait): 3.3
- Enrichment values compared to biotin controls ([1]; prey APBA1, PBM peptide bait): 2.9
- Enrichment values compared to biotin controls ([1]; prey DLG4, PBM peptide bait): 3.9
- Enrichment values compared to biotin controls ([1]; prey DVL2, PBM peptide bait): 1.1
- Enrichment values compared to biotin controls ([1]; prey GOPC, PBM peptide bait): 1.3
- Enrichment values compared to biotin controls ([1]; prey InaDl, PBM peptide bait): 0.9
- Enrichment values compared to biotin controls ([1]; prey LAP2, PBM peptide bait): 2.0
- Enrichment values compared to biotin controls ([1]; prey LNX2, PBM peptide bait): 0.8
- Enrichment values compared to biotin controls ([1]; prey MAGI3, PBM peptide bait): 3.7
- Enrichment values compared to biotin controls ([1]; prey MPP1, PBM peptide bait): 1.3
- Enrichment values compared to biotin controls ([1]; prey MPP5, PBM peptide bait): 1.4
- Enrichment values compared to biotin controls ([1]; prey MPP6, PBM peptide bait): 1.4
- Enrichment values compared to biotin controls ([1]; prey MPP7, PBM peptide bait): 2.9
- Enrichment values compared to biotin controls ([1]; prey MYO18A, PBM peptide bait): 0.9
- Enrichment values compared to biotin controls ([1]; prey PDLIM2, PBM peptide bait): 1.7
- Enrichment values compared to biotin controls ([1]; prey PDLIM5, PBM peptide bait): 0.851
- Enrichment values compared to biotin controls ([1]; prey PDLIM7, PBM peptide bait): 1.2
- Enrichment values compared to biotin controls ([1]; prey PDZD11, PBM peptide bait): 1.8
- Enrichment values compared to biotin controls ([1]; prey PSMD9, PBM peptide bait): 0.748
- Enrichment values compared to biotin controls ([1]; prey SIPA1L1, PBM peptide bait): 1.1
- Enrichment values compared to biotin controls ([1]; prey SIPA1L2, PBM peptide bait): 1.1
- Enrichment values compared to biotin controls ([1]; prey SNTB1, PBM peptide bait): 5.0
- Enrichment values compared to biotin controls ([1]; prey SNTB2, PBM peptide bait): 1.1
- Enrichment values compared to biotin controls ([1]; prey SNX27, PBM peptide bait): 2.9
- Enrichment values compared to biotin controls ([1]; prey SYNJ2BP, PBM peptide bait): 12.5
- Enrichment values compared to biotin controls ([1]; prey TX1B3, PBM peptide bait): 4.1
